Experimental data reported in PMC11901705 (Molecules, 2025).

How the values were obtained:
[1] = Stability of vancomycin in extracted human plasma samples; assay type: physicochemical; conditions: for Mean back calculated Vancomycin Concentrations: extracted human plasma, HPLC-UV, mean of n = 5
Experimental: (§1) The chromatographic separation was performed using HPLC-UV (Shimadzu, Kyoto, Japan), which consisted of solvent delivery pumps (LC-20 AT), an SIL-20A autosampler, and a UV-VIS detector (SPD-10A VP). The HPLC chromatographic separation was performed using a reverse-phase Supleco Discovery® C18 column (5 μm, 250 × 4.6 mm) (Supleco Inc., Mississauga, ON, Canada) with a Discovery® C18 Supelguard™ guard column (5 μm, 20 × 4 mm) (Supleco Inc., Mississauga, ON, Canada). LabSolutions Lite® software version 5.93 (Shimadzu, Kyoto, Japan) was used for the acquisition of data and analysis integration. The mobile phase comprised phosphate buffer and ACN (90:10, v/v). A phosphate buffer with a pH of 2.8 was prepared by combining 175 mL of 0.1 M phosphoric acid with 825 mL of 0.1 M monobasic sodium monophosphate. […] The final concentration of the phosphate buffer was 0.1 M. Separation was carried out using isocratic elution. The flow rate was set to 1 mL/min. The total run time for sample elution was set to 10 min. The detector was set to a wavelength of 192 nm, with the column and autosampler operated at ambient temperature.
(§2) The mixture was vortexed for 40 s and centrifuged at 12,000 rpm for 10 min using an Eppendorf 5424 Microcentrifuge (Eppendorf, Hamburg, Germany). The resultant supernatant was then transferred to a separate HPLC vial with glass inserts. Aliquots of 30 μL was then injected into the HPLC system for analysis. The sample preparation was performed at room temperature and directly injected into the HPLC system.
(§3) The conditions for stability assessment were designed to simulate the conditions encountered during sample storage, handling, and analysis. […] Additionally, we conducted an assessment of freeze–thaw stability involving three cycles, each comprising a 24 h freezing period followed by room temperature thawing, with the cycle being repeated. Acceptability criteria included a stability ratio to reference samples falling within the range of 85% to 115% and a percentage error within 15%.

[2] = Stability of vancomycin in non-extracted human plasma samples; assay type: in vitro ADME; conditions: for Mean back calculated Vancomycin Concentrations / % Error: non-extracted human plasma; for Mean back calculated Vancomycin Concentrations: HPLC-UV, mean of n = 5; for % Error: n = 5; for time of stability: plasma samples (non-extracted)
Experimental: as §1, §2, §3

[3] = Freeze and thaw stability of vancomycin in human plasma; assay type: in vitro ADME; conditions: nominal 10 mg/L
Experimental: as §1
The mixture was vortexed for 40 s and centrifuged at 12,000 rpm for 10 min using an Eppendorf 5424 Microcentrifuge (Eppendorf, Hamburg, Germany). The resultant supernatant was then transferred to a separate HPLC vial with glass inserts. […]

[4] = cited from earlier work
Source text: It is also the preferred agent for managing Gram-positive bacterial infections in patients allergic to beta-lactam antimicrobials.

[5] = -80 °C, 2 weeks, nominal 10 mg/L
[6] = -80 °C, 24 hours, nominal 10 mg/L
[7] = room temperature, 24 hours, nominal 10 mg/L
[8] = -20 °C, 2 weeks, nominal 10 mg/L
[9] = -80 °C, 24 hours, nominal 70 mg/L
[10] = fridge temperature, 2 weeks, nominal 10 mg/L
[11] = fridge temperature, 3 hours, nominal 10 mg/L
[12] = fridge temperature, 3 hours, nominal 70 mg/L
[13] = fridge temperature, 24 hours, nominal 10 mg/L

CN[C@H](CC(C)C)C(=O)N[C@H]1C(=O)N[C@@H](CC(N)=O)C(=O)N[C@H]2C(=O)N[C@H]3C(=O)N[C@H](C(=O)N[C@H](C(=O)O)c4cc(O)cc(O)c4-c4cc3ccc4O)[C@H](O)c3ccc(c(Cl)c3)Oc3cc2cc(c3O[C@@H]2O[C@H](CO)[C@@H](O)[C@H](O)[C@H]2O[C@H]2C[C@](C)(N)[C@H](O)[C@H](C)O2)Oc2ccc(cc2Cl)[C@H]1O [Vancomycin]
period with satisfactory precision and accuracy ([1]; extracted human plasma samples, -80 °C storage): 2 week | degradation on storage at room temperature ([1]; extracted human plasma samples, storage for 24 h, 1 week and 2 weeks): substantial degradation | period with satisfactory precision and accuracy ([1]; extracted human plasma samples, under refrigeration): 2 week | Mean back calculated Vancomycin Concentrations [1, 5]: 8.980 mg/L | Mean back calculated Vancomycin Concentrations [1, 6]: 9.888 mg/L | Mean back calculated Vancomycin Concentrations ([1]; fridge temperature (4 °C), 2 weeks, nominal 10 mg/L): 8.307 mg/L | Mean back calculated Vancomycin Concentrations ([1]; fridge temperature (4 °C), 3 hours, nominal 10 mg/L): 8.720 mg/L | Mean back calculated Vancomycin Concentrations ([1]; fridge temperature (4 °C), 24 hours, nominal 10 mg/L): 9.740 mg/L | Mean back calculated Vancomycin Concentrations ([1]; fridge temperature (4 °C), 24 hours, nominal 70 mg/L): 76.528 mg/L | Mean back calculated Vancomycin Concentrations ([1]; room temperature, 1 week, nominal 10 mg/L): 2.491 mg/L | Mean back calculated Vancomycin Concentrations ([1]; room temperature, 2 weeks, nominal 10 mg/L): 0.722 mg/L | Mean back calculated Vancomycin Concentrations ([1]; room temperature, 2 weeks, nominal 70 mg/L): 3.647 mg/L | Mean back calculated Vancomycin Concentrations ([1]; room temperature, 3 hours, nominal 10 mg/L): 9.283 mg/L | Mean back calculated Vancomycin Concentrations [1, 7]: 6.792 mg/L | Mean back calculated Vancomycin Concentrations [2, 8]: 8.179 mg/L | % Error [2, 8]: 18.210% | % Error ([2]; -20 °C, 2 weeks, nominal 70 mg/L): 12.943% | Mean back calculated Vancomycin Concentrations [2, 5]: 8.809 mg/L | % Error [2, 5]: 11.910% | Mean back calculated Vancomycin Concentrations ([2]; -80 °C, 2 weeks, nominal 70 mg/L): 69.056 mg/L | Mean back calculated Vancomycin Concentrations [2, 6]: 9.282 mg/L | Mean back calculated Vancomycin Concentrations [2, 9]: 67.964 mg/L | % Error [2, 9]: 2.909% | Mean back calculated Vancomycin Concentrations [2, 10]: 8.404 mg/L | % Error [2, 10]: 15.960% | % Error ([2]; fridge temperature, 2 weeks, nominal 70 mg/L): 1.271% | Mean back calculated Vancomycin Concentrations [2, 11]: 9.276 mg/L | % Error [2, 11]: 7.240% | Mean back calculated Vancomycin Concentrations [2, 12]: 75.272 mg/L | % Error [2, 12]: 7.531% | Mean back calculated Vancomycin Concentrations [2, 13]: 8.860 mg/L | % Error [2, 13]: 11.400% | % Error ([2]; fridge temperature, 24 hours, nominal 70 mg/L): 0.770% | Mean back calculated Vancomycin Concentrations ([2]; room temperature, 3 hours, nominal 70 mg/L): 70.355 mg/L | Mean back calculated Vancomycin Concentrations [2, 7]: 9.543 mg/L | time of stability ([2]; -80 °C): 2 weeks | time of stability ([2]; room temperature): 24 h | Mean back calculated Vancomycin Concentrations ([3]; three freeze-thaw cycles (24 h freezing, room temperature thawing), HPLC-UV, mean of n = 5): 9.289 mg/L | % Error ([3]; three freeze-thaw cycles, n = 5): 7.110% | oral bioavailability [4]: negligible
